Results: US20040009904A1, “APL immunoreactive peptides, conjugates thereof and methods of treatment for aPL antibody-mediated pathologies” (priority 1995, published 2004)
Bridge positions count the residues as written; N and C are the ends. Square brackets hold non-standard residues; d marks the D form. Peptide text beside a SMILES is read from it. NMeL = CN[C@@H](CC(C)C)C(=O)O; Phg = N[C@H](C(=O)O)c1ccccc1; Orn = NCCC[C@H](N)C(=O)O; Aib = CC(C)(N)C(=O)O

target: ACA-6501; experiment: Competitive binding peptide ACA ELISA, cardiolipin/β2-GPI-coated plates; design: species or system human; conditions: Optimization of Peptide 3G3; inf = no 50% inhibition
Method: A variation of this assay uses microtitration plates coated with human β2-glycoprotein I/cardiolipin (β2-GPI/CL) instead of tetravalent peptide and tests the ability of monomeric peptides to block the binding of aPL antibody to the epitope(s) on β2-GPI/CL. In this assay, IgG-depleted human serum at an optimized concentration is used as a source of β2-GPI. The monomeric peptides at several concentrations are incubated with an optimized concentration of aPL antibody in a manner analogous to the assay which employs tetravalent peptide as a plate substrate. Following the incubation of aPL/peptide in (β2-GPI/CL) plates, antibody binding and the peptide concentration required for 50% inhibition is determined at half-maximal absorbance as in the tetravalent assay.
Peptide sequences for all five peptides immediately follow the table. All were tested using the competitive binding peptide ACA ELISA using CL/β2-GPI plates as described herein.
(B) Immulon I® 96-well, flat-bottom, polystyrene microtitration plates (Dynatech Laboratories, Inc., Chantilly, Va.) were coated with 30 μL/well of cardiolipin (CL, 50 μg; Sigma Chemical Co., St. Louis, Mo.) in ethanol. Two control wells received 30 μL ethanol only. After overnight evaporation at 4° C., each well was blocked with 200 μL of 5% (w/v) fish gelatin in PBS for 2 hours at RT.
During this incubation, variable amounts of each of six peptides were mixed with 22 μL ACA-6501 serum diluted with 3% fish gelatin in 1:1 TBS/PBS (final dilution of 1:400) in a final volume of 220 μL using Eppendorf microcentrifuge tubes. Specifically, in tube #1 were mixed 181.3 μL of 3% fish gelatin in TBS-PBS, 16.7 μL of peptide stock solution plus 22 μL of ACA-6501 serum diluted 40 times in 3% fish gelatin/TBS-PBS. Stock solutions ranged from 450-800 μg/mL for peptides #951 (diserine non-cyclized negative control), #952 (a lot of LJP 690), and thioethers CCTE-3G3, CHTE-3G3, HCTE-3G3 and HHTE-3G3. To tube #2 the following were added: 148 μL fish gelatin/TBS-PBS, […] of peptide stock solution, plus 22 μL of 40 times diluted ACA-6501 serum. Tube #3 contained 48 μL fish gelatin/TBS-PBS, […] of peptide stock solution, plus 22 μL of 40 times diluted ACA-6501 serum. The control tube #4 received 396 μL fish gelatin/TBS-PBS and 44 μL of 40 times diluted ACA-6501 serum (no peptide). Each of the tubes incubated for approximately 1 hour at RT.
The CL/β2-GPI microtitration plate was washed 5 times with TBS and 100 μL aliquots in duplicate from Eppendorf tubes #1, 2, 3, and 4 containing the antibody-peptide (or no peptide mixtures) were added to the wells. A volume of 100 μL from tube #4 was added to the duplicate control wells containing no cardiolipin. The microtitration plate was incubated for 1 hour at RT with agitation at 40 rpm in an orbital shaker (American Scientific, Rotator V), washed 5 times with TBS and then 100 μL of 1:1000 goat anti-human IgG alkaline phosphatase conjugate (Zymed, Cat No. 62-8422) in 0.5% (w/v) BSA-TBS was added. Following incubation for 1 hour at RT, the microtitration plate was again washed 5 times with TBS and the colorimetric enzyme detection developed by adding 100 μL of PMPP solution (7.8 g phenolphthalein monophosphate plus 69.5 g of 2-amino-2-methyl-1-propanol in 100 mL water stock solution diluted 1:26 with water). After 21 minutes, the reaction was stopped by adding 50 μL of 0.2 M Na2HPO4 (Mallinckrodt) to each well. Absorbance at 550 nm was read in a microplate reader (Bio-Tek Instruments, Model EL 311). The amount of peptide that inhibited ACA-6501 binding by 50%, the IC50, was calculated from the graph at the intersection of half-maximal absorbance with amount of peptide added.

Compound	with ACA 6501 150 ug/mL [µg/mL]
CC(C)C[C@@H]1NC(=O)[C@@H](NC(=O)[C@@H]2CCCN2C(=O)CNC(=O)[C@H](C)N)CSSC[C@@H](C(=O)NCC(=O)O)NC(=O)[C@H](CC(C)C)NC(=O)[C@H](CCCCN)NC(=O)CNC(=O)[C@H](CC(C)C)NC(=O)[C@H](C(C)C)NC(=O)CNC1=O [A G P C L G V L G K L C G] (H-AGPCLGVLGKLCG-OH; disulfide 4-12)	450
CC(C)C[C@@H]1NC(=O)[C@H](CCCCN)NC(=O)CNC(=O)[C@H](CC(C)C)NC(=O)[C@H](C(C)C)NC(=O)CNC(=O)[C@H](C)NC(=O)[C@@H](N)CSSC[C@@H](C(=O)O)NC1=O [C A G V L G K L C] (H-CAGVLGKLC-OH; disulfide 1-9)	200
CC(C)C[C@@H]1NC(=O)[C@H](CCCCN)NC(=O)CNC(=O)[C@H](CC(C)C)NC(=O)[C@H](C(C)C)NC(=O)CNC(=O)CNC(=O)[C@@H](N)CSSC[C@@H](C(=O)O)NC1=O [C G G V L G K L C] (H-CGGVLGKLC-OH; disulfide 1-9)	310
CC[C@H](C)[C@@H]1NC(=O)[C@@H](N)CSSC[C@@H](C(=O)O)NC(=O)[C@H](CC(C)C)NC(=O)[C@H](CCCCN)NC(=O)CNC(=O)[C@H](CC(C)C)NC(=O)[C@H](C(C)C)NC(=O)CNC1=O [C I G V L G K L C] (H-CIGVLGKLC-OH; disulfide 1-9)	60
CC(C)C[C@@H]1NC(=O)[C@H](CCCCN)NC(=O)CNC(=O)[C@H](CC(C)C)NC(=O)[C@H](C(C)C)NC(=O)[C@H](C)NC(=O)[C@H](CC(C)C)NC(=O)[C@@H](N)CSSC[C@@H](C(=O)O)NC1=O [C L A V L G K L C] (H-CLAVLGKLC-OH; disulfide 1-9)	170
CC(C)C[C@@H]1NC(=O)[C@H](C)NC(=O)CNC(=O)[C@H](CC(C)C)NC(=O)[C@@H](N)CSSC[C@@H](C(=O)O)NC(=O)[C@H](CC(C)C)NC(=O)[C@H](CCCCN)NC(=O)CNC1=O [C L G A L G K L C] (H-CLGALGKLC-OH; disulfide 1-9)	260
CC(C)C[C@@H]1NC(=O)[C@H](CCCCN)NC(=O)CNC(=O)[C@H](CC(C)C)NC(=O)[C@@H]2CCCN2C(=O)CNC(=O)[C@H](CC(C)C)NC(=O)[C@@H](N)CSSC[C@@H](C(=O)O)NC1=O [C L G P L G K L C] (H-CLGPLGKLC-OH; disulfide 1-9)	180
CC(C)C[C@@H]1NC(=O)[C@H](C(C)C)NC(=O)CNC(=O)[C@H](CC(C)C)NC(=O)[C@@H](N)CSSC[C@@H](C(=O)O)NC(=O)[C@H](C)NC(=O)[C@H](CCCCN)NC(=O)CNC1=O [C L G V L G K A C] (H-CLGVLGKAC-OH; disulfide 1-9)	360
CC(C)C[C@@H]1NC(=O)[C@H](C(C)C)NC(=O)CNC(=O)[C@H](CC(C)C)NC(=O)[C@@H](N)CSSC[C@@H](C(=O)O)NC(=O)CNC(=O)[C@H](CCCCN)NC(=O)CNC1=O [C L G V L G K G C] (H-CLGVLGKGC-OH; disulfide 1-9)	500
CC(C)C[C@@H]1NC(=O)[C@H](CCCCN)NC(=O)CNC(=O)[C@H](CC(C)C)NC(=O)[C@H](C(C)C)NC(=O)CNC(=O)[C@H](CC(C)C)NC(=O)[C@@H](N)CSSC[C@@H](C(=O)N2CCC[C@H]2C(=O)NCC(=O)O)NC1=O [C L G V L G K L C P G] (H-CLGVLGKLCPG-OH; disulfide 1-9)	460
CC(C)C[C@@H]1NC(=O)[C@H](C(C)C)NC(=O)CNC(=O)[C@H](CC(C)C)NC(=O)[C@@H](N)CSSC[C@@H](C(=O)O)NC(=O)[C@@H]2CCCN2C(=O)[C@H](CCCCN)NC(=O)CNC1=O [C L G V L G K P C] (H-CLGVLGKPC-OH; disulfide 1-9)	550
CC(C)C[C@@H]1NC(=O)[C@H](C(C)C)NC(=O)CNC(=O)[C@H](CC(C)C)NC(=O)[C@@H](N)CSSC[C@@H](C(=O)O)NC(=O)C(C)(C)NC(=O)[C@H](CCCCN)NC(=O)CNC1=O [C L G V L G K aiB C] (H-CLGVLGK[Aib]C-OH; disulfide 1-9)	>470
CC(C)C[C@@H]1NC(=O)[C@H](C(C)C)NC(=O)CNC(=O)[C@H](CC(C)C)NC(=O)[C@@H](N)CSSC[C@@H](C(=O)O)NC(=O)[C@@H](CC(C)C)NC(=O)[C@H](CCCCN)NC(=O)CNC1=O [C L G V L G K dL C] (H-CLGVLGK[dL]C-OH; disulfide 1-9)	140
CC(C)C[C@@H]1NC(=O)[C@H](C(C)C)NC(=O)CNC(=O)[C@H](CC(C)C)NC(=O)[C@@H](N)CSSC[C@@H](C(=O)O)NC(=O)[C@H](CC(C)C)N(C)C(=O)[C@H](CCCCN)NC(=O)CNC1=O [C L G V L G K nL C] (H-CLGVLGK[NMeL]C-OH; disulfide 1-9)	240
CC(C)C[C@@H]1NC(=O)[C@H](C(C)C)NC(=O)CNC(=O)[C@H](CC(C)C)NC(=O)[C@@H](N)CSSC[C@@H](C(=O)O)NC(=O)[C@H](c2ccccc2)NC(=O)[C@H](CCCCN)NC(=O)CNC1=O [C L G V L G K pG C] (H-CLGVLGK[Phg]C-OH; disulfide 1-9)	80
CC(C)C[C@@H]1NC(=O)[C@H](CCCN)NC(=O)CNC(=O)[C@H](CC(C)C)NC(=O)[C@H](C(C)C)NC(=O)CNC(=O)[C@H](CC(C)C)NC(=O)[C@@H](N)CSSC[C@@H](C(=O)O)NC1=O [C L G V L G Or L C] (H-CLGVLG[Orn]LC-OH; disulfide 1-9)	40
CC(C)C[C@@H]1NC(=O)[C@H](C(C)C)NC(=O)CNC(=O)[C@H](CC(C)C)NC(=O)[C@@H](N)CSSC[C@@H](C(=O)O)NC(=O)[C@H](CC(C)C)NC(=O)[C@@H]2CCCN2C(=O)CNC1=O [C L G V L G P L C] (H-CLGVLGPLC-OH; disulfide 1-9)	160
CC(C)C[C@@H]1NC(=O)[C@H](CCCNC(=N)N)NC(=O)CNC(=O)[C@H](CC(C)C)NC(=O)[C@H](C(C)C)NC(=O)CNC(=O)[C@H](CC(C)C)NC(=O)[C@@H](N)CSSC[C@@H](C(=O)O)NC1=O [C L G V L G R L C] (H-CLGVLGRLC-OH; disulfide 1-9)	160
CC(C)C[C@@H]1NC(=O)[C@H](C(C)C)NC(=O)CNC(=O)[C@H](CC(C)C)NC(=O)[C@@H](N)CSSC[C@@H](C(=O)O)NC(=O)[C@H](CC(C)C)NC(=O)C(C)(C)NC(=O)CNC1=O [C L G V L G aiB L C] (H-CLGVLG[Aib]LC-OH; disulfide 1-9)	460
CC(C)C[C@@H]1NC(=O)[C@H](C(C)C)NC(=O)CNC(=O)[C@H](CC(C)C)NC(=O)[C@@H](N)CSSC[C@@H](C(=O)O)NC(=O)[C@H](CC(C)C)NC(=O)[C@@H](CCCCN)NC(=O)CNC1=O [C L G V L G dK L C] (H-CLGVLG[dK]LC-OH; disulfide 1-9)	170
CC(C)C[C@@H]1NC(=O)[C@H](C(C)C)NC(=O)CNC(=O)[C@H](CC(C)C)NC(=O)[C@@H](N)CSSC[C@@H](C(=O)O)NC(=O)[C@@H](CC(C)C)NC(=O)[C@@H](CCCCN)NC(=O)CNC1=O [C L G V L G dK dL C] (H-CLGVLG[dK][dL]C-OH; disulfide 1-9)	150
CC(C)C[C@@H]1NC(=O)[C@H](C(C)C)NC(=O)CNC(=O)[C@H](CC(C)C)NC(=O)[C@@H](N)CSSC[C@@H](C(=O)O)NC(=O)[C@@H](CC(C)C)NC(=O)[C@@H](CC(C)C)NC(=O)CNC1=O [C L G V L G dL dL C] (H-CLGVLG[dL][dL]C-OH; disulfide 1-9)	140
